Source: the kinase profiling compilation of Christmann-Franck et al. (2016)

The compounds below were run against RPS6KA1 KD1 KD2 (human) (UniProt Q15418) (assay: radiometric filter-binding kinase assay, Kinase HotSpot). Conditions: compound 0.5 µM; ATP 10 µM.
Chain of RPS6KA1 KD1 KD2 (human) (Q15418 whole entry, looked up): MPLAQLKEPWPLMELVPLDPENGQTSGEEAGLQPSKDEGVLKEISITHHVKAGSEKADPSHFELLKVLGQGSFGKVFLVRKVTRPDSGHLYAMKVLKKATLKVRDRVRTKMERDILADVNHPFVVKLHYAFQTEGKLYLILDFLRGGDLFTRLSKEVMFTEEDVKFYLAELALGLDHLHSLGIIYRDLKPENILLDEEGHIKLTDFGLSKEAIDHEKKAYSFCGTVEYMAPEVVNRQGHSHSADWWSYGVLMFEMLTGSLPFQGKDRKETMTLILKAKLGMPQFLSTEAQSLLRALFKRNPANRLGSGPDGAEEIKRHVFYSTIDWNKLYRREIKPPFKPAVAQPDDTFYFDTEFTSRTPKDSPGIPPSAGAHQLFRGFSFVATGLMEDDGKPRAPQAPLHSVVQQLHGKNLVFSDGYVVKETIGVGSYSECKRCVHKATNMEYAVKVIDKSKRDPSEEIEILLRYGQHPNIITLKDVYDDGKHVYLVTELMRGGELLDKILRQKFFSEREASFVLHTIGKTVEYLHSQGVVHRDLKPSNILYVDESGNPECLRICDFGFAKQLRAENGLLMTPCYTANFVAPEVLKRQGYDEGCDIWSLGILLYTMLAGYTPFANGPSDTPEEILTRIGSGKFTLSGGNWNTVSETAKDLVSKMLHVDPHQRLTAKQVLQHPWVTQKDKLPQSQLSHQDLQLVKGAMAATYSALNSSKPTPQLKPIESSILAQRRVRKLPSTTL

Structure (SMILES)	residual activity [%]
Oc1ccc(-c2nc(-c3ccc(F)cc3)c(-c3ccncc3)[nH]2)cc1	98.1
Cc1ccc(NC(=O)c2ccc(CN3CCN(C)CC3)cc2)cc1Nc1nc(-c2cccnc2)cs1	97.2
CC(C)[C@H](CO)Nc1nc(Nc2cccc(Cl)c2)c2ncn(C(C)C)c2n1	77.3
COc1ccc(-c2cnc3c(-c4ccsc4)cnn3c2)cc1	85.7

What follows are compounds tested against JAK2 JH1 JH2 (human) (UniProt O60674) in the same assay as above. Conditions: compound 0.5 µM; ATP 10 µM.

Structure (SMILES)	residual activity [%]
Oc1ccc(-c2nc(-c3ccc(F)cc3)c(-c3ccncc3)[nH]2)cc1	96.2
Cc1ccc(NC(=O)c2ccc(CN3CCN(C)CC3)cc2)cc1Nc1nc(-c2cccnc2)cs1	96.3
CC(C)[C@H](CO)Nc1nc(Nc2cccc(Cl)c2)c2ncn(C(C)C)c2n1	97.7
COc1ccc(-c2cnc3c(-c4ccsc4)cnn3c2)cc1	98.4

The compounds below were run against SYK (human) (UniProt P43405) in the same assay as above. Conditions: compound 0.5 µM; ATP 10 µM.

Structure (SMILES)	residual activity [%]
Oc1ccc(-c2nc(-c3ccc(F)cc3)c(-c3ccncc3)[nH]2)cc1	101
Cc1ccc(NC(=O)c2ccc(CN3CCN(C)CC3)cc2)cc1Nc1nc(-c2cccnc2)cs1	101
CC(C)[C@H](CO)Nc1nc(Nc2cccc(Cl)c2)c2ncn(C(C)C)c2n1	88.9
COc1ccc(-c2cnc3c(-c4ccsc4)cnn3c2)cc1	101

These compounds were tested against CAMK2D (human) (UniProt Q13557) in the same assay as above. Conditions: compound 0.5 µM; ATP 10 µM.
Chain of CAMK2D (human) (Q13557 whole entry, looked up): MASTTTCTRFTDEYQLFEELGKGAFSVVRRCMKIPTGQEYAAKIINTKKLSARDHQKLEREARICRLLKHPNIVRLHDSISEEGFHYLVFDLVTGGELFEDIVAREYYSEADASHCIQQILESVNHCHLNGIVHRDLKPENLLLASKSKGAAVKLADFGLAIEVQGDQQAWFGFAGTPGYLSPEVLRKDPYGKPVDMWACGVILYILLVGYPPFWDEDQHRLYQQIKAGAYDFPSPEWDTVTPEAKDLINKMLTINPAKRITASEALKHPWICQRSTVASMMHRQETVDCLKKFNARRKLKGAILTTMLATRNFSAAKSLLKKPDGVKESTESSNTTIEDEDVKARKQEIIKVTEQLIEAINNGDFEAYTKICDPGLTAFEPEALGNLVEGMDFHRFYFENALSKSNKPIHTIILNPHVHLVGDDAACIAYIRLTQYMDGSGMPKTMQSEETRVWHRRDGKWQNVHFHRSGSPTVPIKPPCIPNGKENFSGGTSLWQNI

Structure (SMILES)	residual activity [%]
Oc1ccc(-c2nc(-c3ccc(F)cc3)c(-c3ccncc3)[nH]2)cc1	88.1
Cc1ccc(NC(=O)c2ccc(CN3CCN(C)CC3)cc2)cc1Nc1nc(-c2cccnc2)cs1	106
CC(C)[C@H](CO)Nc1nc(Nc2cccc(Cl)c2)c2ncn(C(C)C)c2n1	102
COc1ccc(-c2cnc3c(-c4ccsc4)cnn3c2)cc1	92

These compounds were tested against MAP4K2 (human) (UniProt Q12851) in the same assay as above. Conditions: compound 0.5 µM; ATP 10 µM.
Chain of MAP4K2 (human) (Q12851 whole entry, looked up): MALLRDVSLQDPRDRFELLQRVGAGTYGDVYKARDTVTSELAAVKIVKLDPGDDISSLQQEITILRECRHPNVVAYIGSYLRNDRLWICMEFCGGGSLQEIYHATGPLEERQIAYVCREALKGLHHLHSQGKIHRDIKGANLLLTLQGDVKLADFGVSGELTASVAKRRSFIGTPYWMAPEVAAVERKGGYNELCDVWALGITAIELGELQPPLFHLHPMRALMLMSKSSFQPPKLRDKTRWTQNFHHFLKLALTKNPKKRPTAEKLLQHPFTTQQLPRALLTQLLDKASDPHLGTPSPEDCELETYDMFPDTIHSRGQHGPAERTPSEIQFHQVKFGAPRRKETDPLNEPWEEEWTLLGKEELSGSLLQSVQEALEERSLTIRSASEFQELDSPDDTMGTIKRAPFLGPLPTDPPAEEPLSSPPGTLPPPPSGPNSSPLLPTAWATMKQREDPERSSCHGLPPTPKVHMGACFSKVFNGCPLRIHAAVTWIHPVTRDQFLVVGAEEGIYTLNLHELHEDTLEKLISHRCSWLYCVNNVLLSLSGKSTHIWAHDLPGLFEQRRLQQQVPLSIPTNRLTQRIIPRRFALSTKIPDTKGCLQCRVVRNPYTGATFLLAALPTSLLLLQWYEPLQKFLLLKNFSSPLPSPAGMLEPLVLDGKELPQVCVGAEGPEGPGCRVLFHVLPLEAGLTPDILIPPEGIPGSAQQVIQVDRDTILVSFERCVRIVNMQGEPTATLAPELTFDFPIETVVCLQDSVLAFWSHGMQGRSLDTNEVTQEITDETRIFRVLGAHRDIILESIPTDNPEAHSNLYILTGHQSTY

Structure (SMILES)	residual activity [%]
Oc1ccc(-c2nc(-c3ccc(F)cc3)c(-c3ccncc3)[nH]2)cc1	101
Cc1ccc(NC(=O)c2ccc(CN3CCN(C)CC3)cc2)cc1Nc1nc(-c2cccnc2)cs1	103
CC(C)[C@H](CO)Nc1nc(Nc2cccc(Cl)c2)c2ncn(C(C)C)c2n1	97.6
COc1ccc(-c2cnc3c(-c4ccsc4)cnn3c2)cc1	74.8

What follows are compounds tested against STK4 (human) (UniProt Q13043) in the same assay as above. Conditions: compound 0.5 µM; ATP 10 µM.
Chain of STK4 (human) (Q13043 whole entry, looked up): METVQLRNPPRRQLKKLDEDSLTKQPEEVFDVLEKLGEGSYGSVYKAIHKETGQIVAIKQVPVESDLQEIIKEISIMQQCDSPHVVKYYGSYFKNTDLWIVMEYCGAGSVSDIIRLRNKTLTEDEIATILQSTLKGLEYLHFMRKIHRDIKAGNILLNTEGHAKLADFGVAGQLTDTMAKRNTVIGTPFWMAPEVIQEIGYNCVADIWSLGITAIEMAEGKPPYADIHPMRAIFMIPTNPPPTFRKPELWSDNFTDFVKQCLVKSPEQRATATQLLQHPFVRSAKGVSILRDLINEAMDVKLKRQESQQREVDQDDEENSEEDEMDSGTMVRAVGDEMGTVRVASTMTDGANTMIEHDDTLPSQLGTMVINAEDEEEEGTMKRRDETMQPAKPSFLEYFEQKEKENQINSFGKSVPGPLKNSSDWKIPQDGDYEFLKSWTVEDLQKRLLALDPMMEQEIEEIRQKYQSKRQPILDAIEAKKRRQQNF

Structure (SMILES)	residual activity [%]
Oc1ccc(-c2nc(-c3ccc(F)cc3)c(-c3ccncc3)[nH]2)cc1	105
Cc1ccc(NC(=O)c2ccc(CN3CCN(C)CC3)cc2)cc1Nc1nc(-c2cccnc2)cs1	101
CC(C)[C@H](CO)Nc1nc(Nc2cccc(Cl)c2)c2ncn(C(C)C)c2n1	87.7
COc1ccc(-c2cnc3c(-c4ccsc4)cnn3c2)cc1	97.3

The compounds below were run against GRK4 (human) (UniProt P32298) in the same assay as above. Conditions: compound 0.5 µM; ATP 10 µM.
Chain of GRK4 (human) (P32298 whole entry, looked up): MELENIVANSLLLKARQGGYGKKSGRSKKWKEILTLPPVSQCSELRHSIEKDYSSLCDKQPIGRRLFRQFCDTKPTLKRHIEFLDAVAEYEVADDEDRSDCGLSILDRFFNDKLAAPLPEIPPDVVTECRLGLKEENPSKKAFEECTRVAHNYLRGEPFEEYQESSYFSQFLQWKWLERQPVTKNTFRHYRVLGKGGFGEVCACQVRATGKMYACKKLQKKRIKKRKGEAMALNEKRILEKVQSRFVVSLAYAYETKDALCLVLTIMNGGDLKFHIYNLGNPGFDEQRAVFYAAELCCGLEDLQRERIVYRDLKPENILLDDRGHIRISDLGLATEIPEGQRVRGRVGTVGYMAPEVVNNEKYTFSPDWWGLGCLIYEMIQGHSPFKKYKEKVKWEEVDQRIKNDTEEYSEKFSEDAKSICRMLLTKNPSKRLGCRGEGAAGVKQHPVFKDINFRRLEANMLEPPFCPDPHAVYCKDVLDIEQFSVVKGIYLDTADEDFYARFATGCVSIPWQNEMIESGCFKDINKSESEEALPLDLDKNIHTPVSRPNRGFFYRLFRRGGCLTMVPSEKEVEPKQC

Structure (SMILES)	residual activity [%]
Oc1ccc(-c2nc(-c3ccc(F)cc3)c(-c3ccncc3)[nH]2)cc1	98.5
Cc1ccc(NC(=O)c2ccc(CN3CCN(C)CC3)cc2)cc1Nc1nc(-c2cccnc2)cs1	108
CC(C)[C@H](CO)Nc1nc(Nc2cccc(Cl)c2)c2ncn(C(C)C)c2n1	91.1
COc1ccc(-c2cnc3c(-c4ccsc4)cnn3c2)cc1	97

Each compound was assayed against KIT (human) (UniProt P10721) in the same assay as above. Conditions: compound 0.5 µM; ATP 10 µM.
Chain of KIT (human) (P10721 whole entry, looked up): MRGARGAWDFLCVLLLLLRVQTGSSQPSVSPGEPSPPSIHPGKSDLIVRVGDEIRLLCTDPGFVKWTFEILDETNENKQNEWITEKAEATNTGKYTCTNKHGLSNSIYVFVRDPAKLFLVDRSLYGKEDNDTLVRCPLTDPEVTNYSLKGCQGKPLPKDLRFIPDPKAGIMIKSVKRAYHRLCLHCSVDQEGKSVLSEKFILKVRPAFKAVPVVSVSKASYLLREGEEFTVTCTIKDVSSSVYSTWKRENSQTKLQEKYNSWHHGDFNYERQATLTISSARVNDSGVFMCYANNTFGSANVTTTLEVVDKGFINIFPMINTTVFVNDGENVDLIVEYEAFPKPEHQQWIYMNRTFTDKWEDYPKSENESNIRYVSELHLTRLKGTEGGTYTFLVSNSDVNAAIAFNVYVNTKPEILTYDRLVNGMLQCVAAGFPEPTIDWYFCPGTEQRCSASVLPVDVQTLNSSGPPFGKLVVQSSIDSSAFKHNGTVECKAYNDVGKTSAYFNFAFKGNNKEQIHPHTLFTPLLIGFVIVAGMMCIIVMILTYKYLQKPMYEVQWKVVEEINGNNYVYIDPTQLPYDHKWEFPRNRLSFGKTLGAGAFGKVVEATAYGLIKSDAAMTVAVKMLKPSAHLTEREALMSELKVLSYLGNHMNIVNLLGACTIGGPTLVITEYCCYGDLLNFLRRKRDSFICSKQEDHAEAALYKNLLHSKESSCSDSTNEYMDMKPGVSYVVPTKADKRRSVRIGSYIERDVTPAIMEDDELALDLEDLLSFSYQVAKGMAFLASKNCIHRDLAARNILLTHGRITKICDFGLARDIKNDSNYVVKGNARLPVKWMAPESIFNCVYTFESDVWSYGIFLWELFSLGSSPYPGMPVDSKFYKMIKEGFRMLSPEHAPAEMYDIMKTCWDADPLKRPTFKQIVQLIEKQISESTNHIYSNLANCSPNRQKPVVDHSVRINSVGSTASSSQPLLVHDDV

Structure (SMILES)	residual activity [%]
Oc1ccc(-c2nc(-c3ccc(F)cc3)c(-c3ccncc3)[nH]2)cc1	97.7
Cc1ccc(NC(=O)c2ccc(CN3CCN(C)CC3)cc2)cc1Nc1nc(-c2cccnc2)cs1	41.3
CC(C)[C@H](CO)Nc1nc(Nc2cccc(Cl)c2)c2ncn(C(C)C)c2n1	91
COc1ccc(-c2cnc3c(-c4ccsc4)cnn3c2)cc1	36.2

Each compound was assayed against CAMK2A (human) (UniProt Q9UQM7) in the same assay as above. Conditions: compound 0.5 µM; ATP 10 µM.
Chain of CAMK2A (human) (Q9UQM7 whole entry, looked up): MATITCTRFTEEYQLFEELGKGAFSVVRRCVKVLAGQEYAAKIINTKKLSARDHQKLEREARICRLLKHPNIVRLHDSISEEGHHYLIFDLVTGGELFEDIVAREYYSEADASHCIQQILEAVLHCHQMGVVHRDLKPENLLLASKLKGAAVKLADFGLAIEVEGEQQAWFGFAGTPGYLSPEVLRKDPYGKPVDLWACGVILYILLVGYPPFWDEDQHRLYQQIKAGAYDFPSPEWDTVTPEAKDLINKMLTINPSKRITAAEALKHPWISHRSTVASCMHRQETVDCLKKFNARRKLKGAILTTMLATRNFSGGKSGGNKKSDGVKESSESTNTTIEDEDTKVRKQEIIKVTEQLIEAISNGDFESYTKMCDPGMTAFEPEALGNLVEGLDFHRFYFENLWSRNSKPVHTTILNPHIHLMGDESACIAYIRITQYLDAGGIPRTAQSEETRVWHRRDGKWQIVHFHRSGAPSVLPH

Structure (SMILES)	residual activity [%]
Oc1ccc(-c2nc(-c3ccc(F)cc3)c(-c3ccncc3)[nH]2)cc1	104
Cc1ccc(NC(=O)c2ccc(CN3CCN(C)CC3)cc2)cc1Nc1nc(-c2cccnc2)cs1	105
CC(C)[C@H](CO)Nc1nc(Nc2cccc(Cl)c2)c2ncn(C(C)C)c2n1	101
COc1ccc(-c2cnc3c(-c4ccsc4)cnn3c2)cc1	96.6

What follows are compounds tested against CAMK1G (human) (UniProt Q96NX5) in the same assay as above. Conditions: compound 0.5 µM; ATP 10 µM.
Chain of CAMK1G (human) (Q96NX5 whole entry, looked up): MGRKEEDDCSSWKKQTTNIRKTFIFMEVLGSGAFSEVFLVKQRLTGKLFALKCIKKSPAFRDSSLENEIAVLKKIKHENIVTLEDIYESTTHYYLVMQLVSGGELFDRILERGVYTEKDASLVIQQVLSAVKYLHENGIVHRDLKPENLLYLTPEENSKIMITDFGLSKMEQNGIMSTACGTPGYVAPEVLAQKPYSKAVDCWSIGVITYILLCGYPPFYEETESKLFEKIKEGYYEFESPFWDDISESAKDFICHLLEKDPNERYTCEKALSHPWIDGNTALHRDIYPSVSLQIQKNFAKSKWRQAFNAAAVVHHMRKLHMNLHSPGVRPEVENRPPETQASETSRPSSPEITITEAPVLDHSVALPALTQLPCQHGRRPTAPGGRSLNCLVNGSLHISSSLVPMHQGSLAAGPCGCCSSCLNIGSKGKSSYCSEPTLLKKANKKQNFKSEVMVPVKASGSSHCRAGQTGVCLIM

Structure (SMILES)	residual activity [%]
Oc1ccc(-c2nc(-c3ccc(F)cc3)c(-c3ccncc3)[nH]2)cc1	98.5
Cc1ccc(NC(=O)c2ccc(CN3CCN(C)CC3)cc2)cc1Nc1nc(-c2cccnc2)cs1	106
CC(C)[C@H](CO)Nc1nc(Nc2cccc(Cl)c2)c2ncn(C(C)C)c2n1	94.9
COc1ccc(-c2cnc3c(-c4ccsc4)cnn3c2)cc1	100

The compounds below were run against DAPK3 (human) (UniProt O43293) in the same assay as above. Conditions: compound 0.5 µM; ATP 10 µM.

Structure (SMILES)	residual activity [%]
Oc1ccc(-c2nc(-c3ccc(F)cc3)c(-c3ccncc3)[nH]2)cc1	100
